Eight compounds from patent US5648367A, “Aminoalkyloximes” (Hoechst Marion Roussel, Inc., priority 1995, dated 1997) can be followed below.

Molecules are shown by their SMILES. Structures can show the parent of a compound that is named as a salt.

For this test, the system named is Serotonin Reuptake. Nature of the test: in vitro inhibition of serotonin uptake ([3H]-5HT uptake into whole rat brain synaptosomes). The format is biochemical, rat (Male CR Wistar rats). Particulars: rat whole brain (minus cerebellum) synaptosomes; 50 nM [3H]-5HT; 5 minutes at 37° C.; pH 7.4; log probit analysis. How it is done:
See, for example, W. K. Goodman, et al., Archives of General Psychiatry, 47, 577 (1990). […] In this assay, a modification of the tests described by A. S. Horn and R. C. A. M. Trace, British Journal of Pharmacology, 51, 399 (1974), A. Nagy and A. V. Delgado-Escueta, Journal of Neurochemistry, 43, 1114 (1984) and P. R. Dunkley, et al., Brain Research, 372, 115 (1986), the following reagents are prepared and employed:
Male CR Wistar rats (100-125 g)
3. Sucrose solution: 0.32M sucrose containing 5 mM HEPES and 0.1 mM EDTA; pH to 7.3 using Tris base.
4. A 0.1 mM stock solution of serotonin creatinine SO4 is made up in 0.01N HCl. This is used to dilute the specific activity of radiolabeled 5HT.
5. 5-[1,2-^3 H(N)]-Hydroxytryptamine creatinine sulfate (serotonin), specific activity 20-30 Ci/mmol, is used. The final desired concentration of [^3 H]-5HT in the assay is 50 nM. The dilution factor is 0.8. The KHBB is made up to contain 62.5 nM of [^3 H]-5HT.
6. For most assays, a 0.5 mM stock solution of the test compound is made up initially in either 10 μl of glacial acetic acid, 100 μl DMSO or 10 μl of the recrystallization solvent, to which is added approximately 10 ml of distilled water. Compounds are initially screened in duplicate at 3 concentrations (10^-8, 10^-7 and 10^-6 M) made up in water. […] To ensure consistency, the standard clomipramine is run with each assay.
Male Wistar rats are decapitated and the brain rapidly removed. Whole brain (minus cerebellum) is weighed and homogenized in 15 volumes of ice cold sucrose solution using a Potter-Elvejhem homogenizer. The following procedures are performed on ice. Homogenization should be done with 4-5 up and down strokes at medium speeds (setting 4.5 to 5) to minimize synaptosome lysis. The homogenate is centrifuged at 1000 g (3000 rpm, Sorvall SS-34 rotor) for 10 minutes at 0°-4° C. The supernatant is removed and approximately 10 ml per tube is carefully layered onto a discontinuous Percoll (Sigma cat# P-1644) gradient: 21% Percoll in sucrose solution at the bottom (15 ml per tube) and 10% Percoll in the middle (10 ml; colored with a few drops of phenol red for visibility).
The Percoil gradient tubes are carefully placed into a Beckman SW-28 swinging bucket rotor and spun in a Beckman XL90 ultracentrifuge using the following program: speed, 11,000 rpm (15,000 g) for 30 minutes at 4° C.; slow acceleration and deceleration (acceleration setting 9; deceleration setting 3). Tubes are carefully removed, and the top layer and the top part of the middle (red) layers are discarded using a pasteur pipette. The synaptosomes are located in the white fluffy band at the interface between the 10% and 21% Percoll layers. This is carefully removed, placed in a centrifuge tube, diluted with KHBB and spun at 21,000 g (13,000 rpm, Sorvall SS-34 rotor). The pellet (synaptosomes) is resuspended in KHBB (10 vol per gram original brain wet weight; 1 brain minus cerebellum weighs approximately 1.2 g; 2.5 brains are needed per typical assay).
20 μl Vehicle or appropriate drug
200 μl of the tissue suspension are added to each of 24 tubes (at a time) containing the 20 μl of vehicle or drug on ice. Three minutes later, 800 μl of KHBB containing [^3 H]-5HT are added, and tubes are vortexed. The rack containing the 24 tubes is moved from the ice bath to a water bath set at 37° C. The tubes are incubated for 5 minutes under 95% oxygen/5% carbon dioxide. Uptake is terminated by filtration through GF/B filter strips using a Brandel cell harvester (filter strips are presoaked in ice cold filtration buffer). Tubes are washed once with 5 ml of ice cold filtration buffer. Filter disks are placed in scintillation vials to which are added 10 ml of scintillation fluid (EcoScint). Filters are allowed to sit overnight before being counted.
For each assay, 3 tubes are incubated with 20 μl of vehicle at both 37° C. and 0° C.
In the case of `NCCON=C(CCCn1ccnc1)c1ccc(Cl)cc1` [1-(4-Chlorophenyl)-4-(1-(1H)-imidazolyl)-1-butanone O-(2-aminoethyl)oxime dihydrochloride], the concentration for half-maximal inhibition (IC50) came out at 160 nM.
For `NCCON=C(CCCn1ccnc1)c1ccc(F)cc1` [1-(4-Fluorophenyl)-4-(1-(1H)-imidazolyl)-1-butanone O-(2-aminoethyl)oxime dihydrochloride] the value was 257 nM.
For `NCCON=C(CCn1ccnc1)c1ccc(C(F)(F)F)cc1` [3-(1-(1H)-Imidazolyl)-1-(4-trifluoromethylphenyl)-1-propanone O-(2-aminoethyl)oxime dihydrochloride], half-maximal inhibition (IC50) was put at 164 nM.
For `NCCON=C(CCn1ccnc1)c1ccc(Cl)cc1` [4'-Chloro-3-(1-(1H)-imidazolyl)propiophenone O-(2-aminoethyl)oxime difumarate] the value was 128 nM; for `COc1ccc(C(CCn2ccnc2)=NOCCN)cc1` [4'-Methoxy-3-(1-(1H)-imidazolyl)propiophenone O-(2-aminoethyl)oxime difumarate hydrate], 1280 nM.
For `NCCON=C(CCCn1ccnc1)c1ccc(C(F)(F)F)cc1` [4-(1-(1H)-Imidazolyl)-1-(4-trifluoromethylphenyl)-1-butanone O-(2-aminoethyl)oxime dihydrochloride] the value was 80 nM; for `NCCON=C(CCCn1ccnc1)c1ccccc1` [4-(1-(1H)-Imidazolyl)-1-phenyl-1-butanone O-(2-aminoethyl)oxime dihydrochloride], 1810 nM; for `Cc1nccn1CCCC(=NOCCN)c1ccccc1` [4-(2-Methyl-1-(1H)-imidazolyl)-1-phenyl-1-butanone O-(2-aminoethyl)oxime dihydrochloride], 656 nM.
